In patent US12331042B2, “Compounds suitable for the treatment and prophylaxis of muscle wasting and other conditions” (priority 2019, dated 2025):
“Also recorded” adds a separate entry of the source.

Tests used:
[1] = tested on: monocrotaline (MCT)-treated C57BL/6 mice; assay: Pulmonary hypertension mouse model, test series 2; assay type: in vivo; conditions: MCT+compound (0.1 weight-% in chow) vs MCT, 8 weeks
Experimental: The test series 2 were performed analogous to test series 1. Briefly, Three groups of mice were included in this study: 1) saline-treated mice (sham; n=10); 2) monocrotaline (MCT)-treated mice fed with normal chow (MCT; n=10); and 3) MCT-treated mice fed with MuRF1 inhibitor chow (MCT+compound; n=10 for each compound). 8 weeks old C57BL/6 mice were subcutaneously injected weekly with either MCT (600 mg/kg) or a matched volume of saline for 8 weeks. The MCT+compound group started receiving the inhibitor chow 1 week prior to the MCT injections, whereas the sham and MCT groups were fed an identical chow but without the addition of the selected compound. The compound concentration in the chow was 0.1 weight-%, resulting in a daily compound intake per mouse of about 3 mg. Body weight was recorded every week for each mouse. Mice were sacrificed after 8 weeks treatment. At sacrifice, examination and tissue analysis were performed as described in test series 1.

[2] = tested on: diaphragm fiber bundle of CHF mice; assay: Contractile function of diaphragm fiber bundles, CHF mice; assay type: in vivo
Experimental: To provide a direct functional assessment, the contractility in skeletal muscle fiber bundles, i.e. fibre bundle from the diaphragm of MCT mice and CIF mice, was measured as follows. A fiber bundle from the diaphragm was isolated to allow in vitro contractile function to be assessed using a length-controlled lever system (301B, Aurora Scientific Inc., Aurora, Canada), as described by Bowen et al., FASEB J, 2017, 31. Briefly, a muscle bundle was mounted vertically in a buffer-filled organ bath (˜22° C.), set at optimal length, and after 15 min was stimulated over a force-frequency protocol between 1-300 Hz (600 mA; 500 ms train duration; 0.25 ms pulse width). […] Shortening velocity was determined 10 ms after the first change in length and on the linear section of the transient (DMA software, Aurora Scientific). Force (N) was normalized to muscle cross-sectional area (CSA; cm^2) by dividing muscle mass (g) by the product of Lo (cm) and estimated muscle density (1.06), which allowed specific force in N/cm^2 to be calculated. Shortening velocity was normalized to optimal muscle length (in Lo/s), while power was calculated for each load as the product of shortening velocity and specific force (in W/cm^2).

[3] = tested on: eIF2B4, AS3MT, ATPAF1, GHDC, BAX protein levels in diaphragm; assay: Proteomic analysis (mass spectrometry) of diaphragm, MCT mice; assay type: in vivo; conditions: MCT + MyoMed-946/MCT, n=3 per group
Experimental: Proteins from frozen diaphragm samples in sham, MCT, and MCT+compound mice (n=3 per group) were powdered under liquid N2. Mass spectrometry was then performed at the DZHK mass spectrometry core facility at Bad Nauheim, as described in Konzer et al., Methods in molecular biology, 2013, 1005, 39-52. The relative ratios for MCT/sham and MCT+compound/MCT were determined, with only hits deemed to be differentially expressed and highly significant (P<0.01) further studied by Western blot.

[4] = tested on: MuRF1, Nox 2, LC3 I/II, nitrotyrosine; assay: Protein expression and nitrotyrosine in muscle tissue of B16F10 mice; assay type: in vivo; conditions: tumor+compound vs tumor
Experimental: Protein expression of MuRF1, Nox 2 and LC3 I/II in muscle tissue of B16F10 mice was determined as described above for the MCT and CHF mice. In addition, the level of the reactive oxygen species marker nitrotyrosine was determined.

[5] = tested on: citrate synthase and mitochondrial complex I; assay: Enzyme activity measurements in muscle tissue, B16F10 mice; assay type: in vivo; conditions: tumor+compound vs tumor
Experimental: The enzyme activities of citrate synthase and mitochondrial complex I in muscle tissue of B16F10 inoculated mice were determined as described above for the […] mice.

[6] = tested on: MuRF1 mRNA in C2C12 myotubes; assay: MuRF1 mRNA in C2C12 myotubes treated with dexamethasone (RT-PCR); assay type: cell-based, Murine; conditions: pre-treatment at 0.1 μmol/L and 10 μmol/L, then 24 h dexamethasone 10 μmol/L
Experimental: Murine C2C12 myoblasts (CRL-1772, ATCC) were cultured in DMEM (Lonza; Basel, Switzerland) supplemented with 10% fetal calf serum (FCS; Gibco®Invitrogen, Carlsbad, CA). For induction of differentiation into myotubes, subconfluent cultures were switched to DMEM containing 2% horse serum (Sigma-Aldrich; Seelze, Germany). Myotubes were subsequently pre-treated for 2 h with increasing compound concentrations (0.1 to 10 μmol/L, dissolved in DMSO) or with an equal volume of DMSO before treatment for 24 h with 10 μmol/L dexamethasone (DEX; Sigma-Aldrich; Seelze, Germany). Myotube diameter was then evaluated by image analysis software (Analysis 3.0, Olympus Soft Imaging Solutions GmbH, Munster, Germany). To determine cytotoxicity of selected compounds, myoblasts or myotubes were incubated with increasing concentrations for 24 h. Subsequently, the concentration of lactate dehydrogenase (LDH) activity was quantified in the cell culture supernatant as a measure for cell destruction as described in Bellocci et al., Anal Biochem, 2008, 374, 48-55.
After the incubation period, Total RNA was isolated from C2C12 cells and reverse transcribed into cDNA using random hexamers and Sensiscript reverse transcriptase (Qiagen, Hilden, Germany). An aliquot of the cDNA was used for quantitative RT-PCR, applying the Light Cycler system (Roche Diagnostics, Mannheim, Germany). […]

Structure (SMILES): Cc1cc(=O)oc2cc(OCc3ccc(C(=O)OCC(=O)NC(=O)NCc4ccco4)cc3)ccc12 [MyoMed-946, [2-(2-furylmethylcarbamoylamino)-2-oxo-ethyl] 4-[(4-methyl-2-oxo-chromen-7-yl)oxymethyl]benzoate]
- right ventricle hypertrophy [1]: attenuated; also recorded: attenuate the development of right ventricle hypertrophy
- post-infarct diaphragm weakness (diaphragm myopathy) ([2]; CHF mice fed compound vs control chow, week 10): protected mice from such a post-infarct diaphragm weakness
- loss of diaphragm function and diaphragm maximal force due to chronic heart failure ([2]; CHF mice fed compound vs untreated CHF mice): significantly reduced
- Protein Ratio (log2), AS3MT [3]: −0.31
- Protein Ratio (log2), ATPAF1 [3]: −0.68
- Protein Ratio (log2), BAX [3]: −0.73
- Protein Ratio (log2), GHDC [3]: −0.39
- Protein Ratio (log2), eIF2B4 [3]: 0.32
- downregulation of expression levels of LC3 I/II [4]: attenuated; also recorded: not observed
- expression of Nox 2 [4]: attenuated; also recorded: significantly reduced
- tissue level of nitrotyrosine [4]: attenuated; also recorded: significantly reduced
- up-regulation of MuRF1 expression [4]: attenuated; also recorded: prevented
- citrate synthase enzyme activity [5]: attenuated; also recorded: partially or complete restores
- expression of MuRF1 at the mRNA level [6]: reduced MuRF1 mRNA levels; also recorded: prevented
